According to ChEMBL document CHEMBL4043246, “Discovery of novel [1,2,4]triazolo[4,3-a]quinoxaline aminophenyl derivatives as BET inhibitors for cancer treatment” (Bioorg Med Chem Lett, 2017):

Molecular target: Bromodomain-containing protein 1 (Homo sapiens) (UniProt O95696)
Assay: Inhibition of human partial length BRD1 (E556 to A688 residues) expressed in bacterial expression system assessed as residual activity at 500 nM relative to control by BROMOscan assay

Sequence of Bromodomain-containing protein 1 (Homo sapiens) (O95696 whole entry, the tested form may be a part): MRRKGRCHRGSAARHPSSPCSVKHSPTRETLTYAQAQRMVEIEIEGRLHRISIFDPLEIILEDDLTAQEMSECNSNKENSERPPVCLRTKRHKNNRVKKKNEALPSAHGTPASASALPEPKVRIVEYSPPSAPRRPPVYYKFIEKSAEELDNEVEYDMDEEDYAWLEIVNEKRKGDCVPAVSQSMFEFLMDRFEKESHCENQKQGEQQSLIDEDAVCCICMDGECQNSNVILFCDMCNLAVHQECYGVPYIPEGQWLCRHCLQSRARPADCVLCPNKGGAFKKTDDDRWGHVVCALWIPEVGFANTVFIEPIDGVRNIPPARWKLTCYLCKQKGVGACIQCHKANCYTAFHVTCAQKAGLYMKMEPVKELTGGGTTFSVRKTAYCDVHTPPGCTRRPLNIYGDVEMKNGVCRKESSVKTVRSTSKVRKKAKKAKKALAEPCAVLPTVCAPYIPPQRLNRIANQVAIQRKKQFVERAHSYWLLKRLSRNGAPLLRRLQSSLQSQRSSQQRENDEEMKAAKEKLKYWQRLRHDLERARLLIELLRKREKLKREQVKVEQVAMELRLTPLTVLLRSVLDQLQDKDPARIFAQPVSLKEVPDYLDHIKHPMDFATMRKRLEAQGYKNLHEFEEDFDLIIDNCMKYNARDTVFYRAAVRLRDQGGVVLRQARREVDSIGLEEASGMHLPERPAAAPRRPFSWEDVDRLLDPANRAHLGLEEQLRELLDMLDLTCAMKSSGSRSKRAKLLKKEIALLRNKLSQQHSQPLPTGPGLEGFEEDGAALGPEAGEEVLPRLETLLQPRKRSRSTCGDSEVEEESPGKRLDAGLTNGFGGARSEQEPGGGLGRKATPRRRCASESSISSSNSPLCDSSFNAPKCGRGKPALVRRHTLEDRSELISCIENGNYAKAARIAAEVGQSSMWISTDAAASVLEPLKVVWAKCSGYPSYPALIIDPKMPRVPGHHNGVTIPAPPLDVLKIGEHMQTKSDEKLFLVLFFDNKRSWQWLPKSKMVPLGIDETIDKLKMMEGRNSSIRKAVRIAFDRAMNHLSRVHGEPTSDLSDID

With `Cc1nnc2c(Nc3cccc(CNC(=O)C(C)C)c3)nc3ccccc3n12` the Activity was 100%.
